According to patent publication US8193234B2, “Compounds, compositions and methods of using same for modulating uric acid levels” (Ardea Biosciences, Inc., priority 2008, dated 2012):
Like-named read-outs stand apart in the source and are kept apart here.

Columns and labels:
hURAT1 Transporter = molecular target: T1, hURAT1 Transporter (Homo sapiens, UniProt Q96S37); test: Uric Acid Uptake Assay (14C-uric acid uptake in HEK293/urat1 cells); format: cell-based; conditions: 40 μM C14 uric acid, 10 minutes at room temperature
T1 construct: Full-length human URAT1 gene (SLC22A12) was subcloned from plasmid pCMV6-XL5 (Origene)
T1 sequence (Q96S37 1-553): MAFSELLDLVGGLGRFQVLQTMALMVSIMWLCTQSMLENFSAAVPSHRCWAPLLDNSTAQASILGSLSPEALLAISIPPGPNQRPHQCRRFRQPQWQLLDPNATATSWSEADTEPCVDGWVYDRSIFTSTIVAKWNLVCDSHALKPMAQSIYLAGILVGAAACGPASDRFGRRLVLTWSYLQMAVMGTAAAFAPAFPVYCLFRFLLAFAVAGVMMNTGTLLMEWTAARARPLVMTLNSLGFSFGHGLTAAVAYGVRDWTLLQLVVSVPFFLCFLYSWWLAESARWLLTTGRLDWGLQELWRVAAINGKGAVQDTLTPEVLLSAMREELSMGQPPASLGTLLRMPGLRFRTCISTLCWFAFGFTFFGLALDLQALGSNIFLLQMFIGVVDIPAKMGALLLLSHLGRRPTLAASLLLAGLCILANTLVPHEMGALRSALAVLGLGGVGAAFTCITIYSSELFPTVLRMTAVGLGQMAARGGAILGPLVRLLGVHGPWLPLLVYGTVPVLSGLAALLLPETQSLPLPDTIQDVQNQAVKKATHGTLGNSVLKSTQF
Text: Creation of Stable Cell Lines Expressing hURAT1 Transporter: Full-length human URAT1 gene (SLC22A12) was subcloned from plasmid pCMV6-XL5 (Origene) into eukaryotic expression plasmid pCMV6/Neo (Origene) using Not I restriction sites. Gene sequencing confirmed the sequence of hURAT1 as outlined in Genbank (Accession #NM_144585.2). HEK293 human embryonic kidney cells (ATCC #CRL-1573) were propagated in EMEM tissue culture medium as described by ATCC in an atmosphere of 5% CO2 and 95% air. Transfections of HEK293 cells with the pCMV6/Neo/URAT1 construct were performed using L2000 transfection reagent (Invitrogen) as described by the manufacturer. After 24 h the transfected cells were split into 10 cm tissue culture plates and grown for 1 day after which the medium was replaced with fresh growth medium containing G418 (Gibco) at 0.5 mg/ml final concentration. Drug-resistant colonies were selected after approximately 8 days and then tested for ^14C-uric acid transport activity. The HEK293/urat1 cells are plated on Poly-D-Lysine Coated 96-well Plates at a density of 75,000 cells per well.
Cells were grown overnight (20-26 hours) at 37° C. in an incubator. Plates were allowed to come to room temperature and media was washed out with one wash of 250 μl of Wash Buffer (125 mM Na Gluconate, 10 mM Hepes ph 7.3). Compound or vehicle is added in assay buffer with C14 Uric Acid for a final concentration of 40 μM Uric Acid with a specific activity of 54 mCi/mmol. Assay Buffer is 125 mM Sodium Gluconate, 4.8 mM Potassium Gluconate, 1.2 mM Potassium phosphate, monobasic, 1.2 mM magnesium sulfate, 1.3 mM Ca Gluconate, 5.6 mM Glucose, 25 mM HEPES, pH 7.3. Plates were incubated at room temperature for 10 minutes then washed 3 times with 50 μl Wash Buffer and 3 times with 250 μl Wash Buffer. Microscint 20 Scintillation Fluid was added and plates were incubated overnight at 45° C. to equilibrate. Plates are then read on the TopCount Plate Reader and an EC50 value generated. (See Enomoto et al, Nature, 2002, 417, 447-451 and Anzai et al, J. Biol. Chem., 2004, 279, 45942-45950).
Compounds prepared as described herein, were examined according to the procedure described above and EC50 values generated. […] (N/A means data not available).

[1] = PO Dosing in Rats: plasma profile; format: in vivo, Male Sprague-Dawley Rats; conditions: for Cmax / Tmax / half-life / AUC(0-t): Sprague-Dawley, rat; for Cmax / Tmax / half-life / Clast: analyte = dosed compound itself in plasma; for half-life: read-out: t½ (converted); for AUC t = 0_6, share in brackets / AUC t = 12_24, share in brackets / AUC t = _12, share in brackets: share of AUC 0_24; for AUC(0-t): male, plasma, po, 3 mg/kg
Method: (§1) Compounds prepared as described in examples 1, 3, 7, 8, and 9 are administered PO to Male Sprague-Dawley Rats (250 grams; 3 animals per test group). The test compounds are dissolved in aqueous sodium hydroxide solution (0.2N), brought up to volume with phosphate buffered saline to a concentration of 0.6 mg/mL, and PO administered to the animals at a concentration of 3 mg/kg (5 mL/kg). Plasma samples are removed at 0.25, 0.5, 1, 3, 6, 12 and 24 hr after initial dose and analyzed for presence of compound and possible metabolite. Urine samples are also collected and analyzed for parent compound and/or metabolite.
(§2) Note that in some instances, 2-(5-Bromo-1-(4-cyanonaphthalen-1-yl)-1H-imidazol-2-ylthio)acetic acid (eg 1) is a possible in vivo metabolite of the compounds described in examples 2-9.

[2] = PO Dosing in Rats: urinary excretion profile; format: in vivo, Male Sprague-Dawley Rats; conditions: analyte = dosed compound itself in urine, PO 3 mg/kg, male rats
Method: as §1, §2

[3] = background statement, in certain instances; cited from earlier work
[4] = footnote *: plasma, not urinary, distribution, analyte = dosed compound, PO 3 mg/kg, male rats
[5] = analyte = dosed compound itself
[6] = analyte = dosed compound itself, PO 3 mg/kg, male rats, read-out: AUC t = 0_6
[7] = analyte = dosed compound itself, PO 3 mg/kg, male rats, read-out: AUC t = 0_24
[8] = analyte = dosed compound itself, PO 3 mg/kg, male rats, read-out: AUC t = 12_24
[9] = analyte = dosed compound itself, PO 3 mg/kg, male rats, read-out: AUC t = _12

Work on `CCOC(=O)CCNC(=O)CSc1ncc(Br)n1-c1ccc(C#N)c2ccccc12` [Example 4, Ethyl 3-(2-(5-bromo-1-(4-cyanonaphthalen-1-yl)-1H-imidazol-2-ylthio)acetamido)propanoate] yielded an EC50 (hURAT1 Transporter) of 0.001 to 1 µM.
In the case of `N#Cc1ccc(-n2c(Br)cnc2SC(F)(F)C(=O)O)c2ccccc12` [Example 10, 2-(5-Bromo-1-(4-cyanonaphthalen-1-yl)-1H-imidazol-2-ylthio)-2,2-difluoroacetic acid], the EC50 (hURAT1 Transporter) is reported as 0.001 to 1 µM.
In the case of `N#Cc1ccc(-n2c(Br)cnc2SCC(=O)O)c2ccccc12` [Example 1, 2-(5-Bromo-1-(4-cyanonaphthalen-1-yl)-1H-imidazol-2-ylthio)acetic acid], the EC50 (hURAT1 Transporter) is reported as 0.001 to 1 µM, the BA ([1]; analyte = dosed compound itself, PO 3 mg/kg, male rats) is reported as 30% and the “Plasma Distribution (%) 0-6 h” value [1, 4] is reported as 85* %. The “Plasma Distribution (%) 6-12 h” value [1, 4] was 11* %, the “Plasma Distribution (%) 12-24 h” value [1, 4] was 4* % and the “Total Urinary Excretion % of dose” value [2] was 4.2 % of dose.
In the case of `N#Cc1ccc(-n2c(Br)cnc2SCC(=O)NCCC(=O)O)c2ccccc12` [Example 7, 3-(2-(5-bromo-1-(4-cyanonaphthalen-1-yl)-1H-imidazol-2-ylthio)acetamido)propanoic acid], the EC50 (hURAT1 Transporter) is reported as 1 to 30 µM, the “Total Urinary Excretion % of dose” value [2] is reported as 26 % of dose and the “Urinary Distribution (%) 0-6 h” value [2] is reported as 63%. The “Urinary Distribution (%) 6-12 h” value [2] was 30% and the “Urinary Distribution (%) 12-24 h” value [2] was 7%.
Compound `N#Cc1ccc(-n2c(Br)cnc2SCC(=O)NCC(=O)O)c2ccccc12` [Example 3, 2-(2-(5-Bromo-1-(4-cyanonaphthalen-1-yl)-1H-imidazol-2-ylthio)acetamido)acetic acid] has an EC50 (hURAT1 Transporter) of 1 to 30 µM, a Cmax ([1]; PO 3 mg/kg, male rats) of 56.6 ng/mL and a Tmax ([1]; PO 3 mg/kg, male rats) of 0.833 h. For the same compound, the half-life ([1]; PO 3 mg/kg, male rats) was 3.49 h, the Clast ([1]; PO 3 mg/kg, male rats) was 0.518 ng/mL and the “AUC t = 0_6, share in brackets” value [1, 5] was “(58%)”. The “AUC t = 12_24, share in brackets” value [1, 5] was “(10%)”, the “AUC t = _12, share in brackets” value [1, 5] was “(32%)” and the AUC(0-t) [1, 6] was 145 ng·h/mL. It also gave an AUC(0-t) [1, 7] of 251 ng·h/mL, an AUC(0-t) [1, 8] of 25.6 ng·h/mL and an AUC(0-t) [1, 9] of 79.8 ng·h/mL. For the same compound, the “Total Urinary Excretion % of dose” value [2] was 7 % of dose, the “Urinary Distribution (%) 0-6 h” value [2] was 74% and the “Urinary Distribution (%) 6-12 h” value [2] was 20%. For the same compound, the “Urinary Distribution (%) 12-24 h” value [2] was 7%.
`C[C@H](NC(=O)CSc1ncc(Br)n1-c1ccc(C#N)c2ccccc12)C(=O)O` [Example 8, (2S)-2-(2-(5-bromo-1-(4-cyanonaphthalen-1-yl)-1H-imidazol-2-ylthio)acetamido)propanoic acid] gave an EC50 (hURAT1 Transporter) of over 30 µM, a Cmax ([1]; PO 3 mg/kg, male rats) of 110 ng/mL and a Tmax ([1]; PO 3 mg/kg, male rats) of 1 h. For the same compound, the half-life ([1]; PO 3 mg/kg, male rats) was 2.99 h, the Clast ([1]; PO 3 mg/kg, male rats) was 0.371 ng/mL and the “AUC t = 0_6, share in brackets” value [1, 5] was “(69%)”. For the same compound, the “AUC t = 12_24, share in brackets” value [1, 5] was “(13%)”, the “AUC t = _12, share in brackets” value [1, 5] was “(17%)” and the AUC(0-t) [1, 6] was 339 ng·h/mL. For the same compound, the AUC(0-t) [1, 7] was 488 ng·h/mL, the AUC(0-t) [1, 8] was 65.2 ng·h/mL and the AUC(0-t) [1, 9] was 83.9 ng·h/mL. The “Total Urinary Excretion % of dose” value [2] was 8 % of dose, the “Urinary Distribution (%) 0-6 h” value [2] was 63% and the “Urinary Distribution (%) 6-12 h” value [2] was 32%. For the same compound, the “Urinary Distribution (%) 12-24 h” value [2] was 5%.
With `CCOC(=O)[C@H](C)NC(=O)CSc1ncc(Br)n1-c1ccc(C#N)c2ccccc12` [Example 5, (2S)-Ethyl 2-(2-(5-bromo-1-(4-cyanonaphthalen-1-yl)-1H-imidazol-2-ylthio)acetamido)propanoate] the EC50 (hURAT1 Transporter) was 0.001 to 1 µM.
`Cc1cnc(SCC(=O)O)n1-c1ccc(N(C)C)c2c1CCCC2` gave an EC50 (hURAT1 Transporter) of 1 to 30 µM.
Compound `CCOC(=O)[C@@H](NC(=O)CSc1ncc(Br)n1-c1ccc(C#N)c2ccccc12)C(C)C` [Example 6, (2S)-Ethyl 2-(2-(5-bromo-1-(4-cyanonaphthalen-1-yl)-1H-imidazol-2-ylthio)acetamido)-3-methylbutanoate] has an EC50 (hURAT1 Transporter) of 0.001 to 1 µM.
Work on `CCOC(=O)CNC(=O)CSc1ncc(Br)n1-c1ccc(C#N)c2ccccc12` [Example 2, Ethyl 2-(2-(5-bromo-1-(4-cyanonaphthalen-1-yl)-1H-imidazol-2-ylthio)acetamido)acetate] yielded an EC50 (hURAT1 Transporter) of 0.001 to 1 µM.
In the case of `CCCN(CCC)S(=O)(=O)c1ccc(C(=O)O)cc1` [probenecid], the “individuals treated who fail to achieve reduction of serum uric acid levels<6 mg/dL” value [3] is listed as 25-50% and the “individuals who develop intolerance” value [3] is listed as “one-third”.
In the case of `Oc1ncnc2[nH]ncc12` [Allopurinol, allopurinol], the “incidence of side effects, of all individuals treated with the drug” value [3] is given as 20%.
`CC(C)[C@H](NC(=O)CSc1ncc(Br)n1-c1ccc(C#N)c2ccccc12)C(=O)O` [Example 9, (2S)-2-(2-(5-bromo-1-(4-cyanonaphthalen-1-yl)-1H-imidazol-2-ylthio)acetamido)-3-methylbutanoic acid] gave an EC50 (hURAT1 Transporter) of 1 to 30 µM, a Cmax ([1]; PO 3 mg/kg, male rats) of 25.8 ng/mL and a Tmax ([1]; PO 3 mg/kg, male rats) of 2.67 h. The half-life ([1]; PO 3 mg/kg, male rats) was 2.69 h, the Clast ([1]; PO 3 mg/kg, male rats) was 4.69 ng/mL and the “AUC t = 0_6, share in brackets” value [1, 5] was “(49%)”. The “AUC t = 12_24, share in brackets” value [1, 5] was “(15%)”, the “AUC t = _12, share in brackets” value [1, 5] was “(36%)” and the AUC(0-t) [1, 6] was 91.5 ng·h/mL. It also gave an AUC(0-t) [1, 7] of 187 ng·h/mL, an AUC(0-t) [1, 8] of 28.2 ng·h/mL and an AUC(0-t) [1, 9] of 67.7 ng·h/mL. For the same compound, the “Total Urinary Excretion % of dose” value [2] was 1 % of dose, the “Urinary Distribution (%) 0-6 h” value [2] was 66% and the “Urinary Distribution (%) 6-12 h” value [2] was 26%. The “Urinary Distribution (%) 12-24 h” value [2] was 9%.
